Test results published in US20090311237A1, “Combination therapy using a soluble hyaluronidase and a bisphosphonate” (priority 2008, published 2009).
“And” between values parts separate entries of the source, which are not always exact repeats. Equal entries are not always repeated. Where two headings read alike, the source gives them in different places.

Test: Phase 1 Stage 1 clinical pharmacokinetics of SC ZA co-administered with rHuPH20
Format: in vivo, human
Design: key to Mean Conc. / Median Conc.: BLQ = blow limit for quantitation
Settings: serum, serum; for MAT: subcutaneous, 100 mL, 24000 Units rHuPH20, read-out: MAT (mean absorption time = SC MRT − IV MRT); for half-life: read-out: T½ λz (converted)
Protocol: A pharmacokinetic study of zoledronic acid (ZA) co-administered with rHuPH20 in human subjects was conducted. The primary objective of the study was to determine the bioavailability of zoledronic acid dosed via subcutaneous (SC) co-administration with human recombinant hyaluronidase PH20 (rHuPH20). […] The patients were administered the prescribed dosage formulations as follows: Cohorts 1-5 were administered a single subcutaneous infusion in a dosage volume of 100 ml at a rate of 3 mL/min. […] The dosing solution is administered via needle or catheter into the SC space of the left anterior thigh (midway between the anterior iliac crest and the cephalad border of the patella). For cohorts 1-5, the dosing solutions were administered by a controlled rate infusion pump at approximately 3 mL/minute. […] The dosing solutions were administered by syringe push bolus injection. […] Serum concentration of ZA was determined using a qualified LC-MS-MS assay after derivatization with diazomethane (Zhu, L S et al. (2006) Rapid Commun. […] The assay range was from 2.0 to 400 ng/mL with a lower limit of quantitation (LLOQ) at 2.0 ng/mL. […] Non-compartmental analysis was used for derivation of primary and secondary pharmacokinetic (PK) parameters. […] Summary statistics (mean, standard deviation, and median) were calculated using JMP or Microsoft Excel.

[1] = ZA 0.25 mg SC infusion + 24000 Units rHuPH20, 12 h post infusion, n=3
[2] = ZA 0.25 mg SC infusion + 24000 Units rHuPH20, 24 h post infusion, n=3
[3] = ZA 0.25 mg SC infusion + 24000 Units rHuPH20, 48 h post infusion, n=3

For `O=P(O)(O)C(O)(Cn1ccnc1)P(=O)(O)O` [ZA, 1-hydroxy-2-(1H-imidazol-1-yl)ethylidene-1,1-bisphosphonic acid], the concentration at 6 h (human, sc, ZA 5 mg SC infusion + 24000 Units rHuPH20, 6 h post infusion, n=3, read-out: Median Conc.) was 22.3 ng/mL, the concentration at 8 h (human, sc, ZA 5 mg SC infusion + 24000 Units rHuPH20, 8 h post infusion, individual subjects, read-out: Zoledronic Acid Concentration) was 9.44 ng/mL and the concentration at 8 h (human, sc, ZA 5 mg SC infusion + 24000 Units rHuPH20, 8 h post infusion, n=3, read-out: Mean Conc.) was 11 ng/mL. For the same molecule, the concentration at 8 h (human, sc, ZA 5 mg SC infusion + 24000 Units rHuPH20, 8 h post infusion, n=3, read-out: Median Conc.) was 11 ng/mL, the concentration at 12 h (human, sc, ZA 5 mg SC infusion + 24000 Units rHuPH20, 12 h post infusion, individual subjects, read-out: Zoledronic Acid Concentration) was 3.91 ng/mL and the concentration at 12 h (human, sc, ZA 5 mg SC infusion + 24000 Units rHuPH20, 12 h post infusion, n=3, read-out: Mean Conc.) was 4.51 ng/mL. The concentration at 12 h (human, sc, ZA 5 mg SC infusion + 24000 Units rHuPH20, 12 h post infusion, n=3, read-out: Median Conc.) was 4.61 ng/mL, the concentration at 24 h (human, sc, ZA 5 mg SC infusion + 24000 Units rHuPH20, 24 h post infusion, individual subjects, read-out: Zoledronic Acid Concentration) was 2.15 ng/mL and the concentration at 24 h (human, sc, ZA 5 mg SC infusion + 24000 Units rHuPH20, 24 h post infusion, n=3, read-out: Mean Conc.) was 2.45 ng/mL. The concentration at 24 h (human, sc, ZA 5 mg SC infusion + 24000 Units rHuPH20, 24 h post infusion, n=3, read-out: Median Conc.) was 2.23 ng/mL, the concentration at 48 h (human, sc, ZA 5 mg SC infusion + 24000 Units rHuPH20, 48 h post infusion, individual subjects, read-out: Zoledronic Acid Concentration) was 1.28 ng/mL and the concentration at 48 h (human, sc, ZA 5 mg SC infusion + 24000 Units rHuPH20, 48 h post infusion, n=3, read-out: Mean Conc.) was 1.55 ng/mL. For the same molecule, the concentration at 48 h (human, sc, ZA 5 mg SC infusion + 24000 Units rHuPH20, 48 h post infusion, n=3, read-out: Median Conc.) was 1.63 ng/mL, the MAT (human, 0.5 mg, ZA 0.5 mg SC, individual subjects) was 0.96 h and the MAT (human, 1 mg, ZA 1 mg SC, individual subjects) was 1.68 h. It also gave a half-life (human, Subj 1, ZA 0.0045 mg/kg SC, inf 0.554 hr, PH20 23928 U) of 1.88 h, a half-life (human, Subj 8, ZA 0.0032 mg/kg SC, inf 0.531 hr, PH20 22944 U) of 3.09 h and a half-life (human, Subj 11, ZA 0.0033 mg/kg SC, inf 0.554 hr, PH20 23928 U) of 2.2 h. For the same molecule, the half-life (human, Subj 21, ZA 0.0066 mg/kg SC, inf 0.556 hr, PH20 24000 U) was 2.27 h, the half-life (human, Subj 29, ZA 0.0339 mg/kg SC, inf 0.556 hr, PH20 24000 U) was 8.7 h and the half-life (human, Subj 32, ZA 0.0350 mg/kg SC, inf 0.556 hr, PH20 24000 U) was 22 h. It also gave a half-life (human, Subj 37, ZA 0.0791 mg/kg SC, inf 0.556 hr, PH20 24000 U) of 23.4 h, a half-life (human, Subj 38, ZA 0.0706 mg/kg SC, inf 0.554 hr, PH20 23952 U) of 24.4 h and a half-life (human, Subj 46, ZA 0.0877 mg/kg SC, inf 0.276 hr, PH20 12000 U) of 20.8 h. The half-life (human, Subj 71, ZA 0.0781 mg/kg SC, inf 0.250 hr, PH20 6000 U) was 19.2 h, the half-life (human, Subj 74, ZA 0.0794 mg/kg SC, inf 0.250 hr, PH20 6000 U) was 23.7 h and the “Zoledronic Acid Concentration” value (ZA 0.25 mg SC infusion + 24000 Units rHuPH20, 0 h post infusion, individual subjects, listed as Zoledronic Acid) was 4.69 ng/mL. For the same molecule, the “Zoledronic Acid Concentration” value (ZA 0.25 mg SC infusion + 24000 Units rHuPH20, 10 min post infusion, individual subjects, listed as Zoledronic Acid) was 4.97 ng/mL and 4.87 ng/mL, the “Zoledronic Acid Concentration” value (ZA 0.25 mg SC infusion + 24000 Units rHuPH20, 0.5 h post infusion, individual subjects, listed as Zoledronic Acid) was 5.17 ng/mL and 6.25 ng/mL and the “Zoledronic Acid Concentration” value (ZA 0.25 mg SC infusion + 24000 Units rHuPH20, 1 h post infusion, individual subjects, listed as Zoledronic Acid) was 5.67 ng/mL and 6.60 ng/mL. The “Zoledronic Acid Concentration” value (ZA 0.25 mg SC infusion + 24000 Units rHuPH20, 2 h post infusion, individual subjects, listed as Zoledronic Acid) was 4.33 ng/mL and 5.44 ng/mL, the “Zoledronic Acid Concentration” value (ZA 0.25 mg SC infusion + 24000 Units rHuPH20, 4 h post infusion, individual subjects, listed as Zoledronic Acid) was 3.45 ng/mL and 3.06 ng/mL and the “Zoledronic Acid Concentration” value (ZA 0.25 mg SC infusion + 24000 Units rHuPH20, 6 h post infusion, individual subjects, listed as Zoledronic Acid) was 2.02 ng/mL and 1.35 ng/mL. For the same molecule, the “Zoledronic Acid Concentration” value (ZA 0.25 mg SC infusion + 24000 Units rHuPH20, 8 h post infusion, individual subjects, listed as Zoledronic Acid) was 1.11 ng/mL and 0.79 ng/mL, the “Zoledronic Acid Concentration” value (ZA 0.25 mg SC infusion + 24000 Units rHuPH20, 12 h post infusion, individual subjects) was “BLQ < (0.500) ng/mL” and the “Mean Conc.” value [1] was “BLQ”. The “Median Conc.” value [1] was “BLQ”, the “Zoledronic Acid Concentration” value (ZA 0.25 mg SC infusion + 24000 Units rHuPH20, 24 h post infusion, individual subjects) was “BLQ < (0.500) ng/mL” and the “Mean Conc.” value [2] was “BLQ”. For the same molecule, the “Median Conc.” value [2] was “BLQ”, the “Zoledronic Acid Concentration” value (ZA 0.25 mg SC infusion + 24000 Units rHuPH20, 48 h post infusion, individual subjects) was “BLQ < (0.500) ng/mL” and the “Mean Conc.” value [3] was “BLQ”. The “Median Conc.” value [3] was “BLQ” and the “Zoledronic Acid Concentration” value (ZA 0.5 mg SC infusion + 24000 Units rHuPH20, 0 h post infusion, individual subjects, listed as Zoledronic Acid) was 13.60 ng/mL.
